≈ marks a conversion by molar mass, not a printed value.
Assays:
Nucleic Acid [1] = experiment: Relative concentration of compound for alkylation of w794 DNA is detected at incubation condition of 4 degrees C for 24 hr; Range is 0.01-0.006; format: functional
T222 [2] = experiment: Concentration for 50% growth inhibition relative to untreated control in the human lung epidermoid carcinoma (T222) cell line; format: functional, cell-based
T222 [3] = experiment: Concentration for 50% growth inhibition relative to untreated control in the human lung epidermoid carcinoma (T222) cell line; Not active; format: functional, cell-based
Mus musculus [4] = experiment: Percent inhibition against [3H]leucine uptake at a dose of 0.05 mg/Kg in mouse bearing a T222 tumor burden; format: functional
Mus musculus [5] = experiment: Percent inhibition against [3H]-Leucine uptake at a dose of 0.1 mg/Kg in a mouse bearing a T222 tumor burden; format: functional
Mus musculus [6] = experiment: Percent inhibition against [3H]leucine uptake at a dose of 0.2 mg/Kg in a mouse bearing a T222 tumor burden; format: functional
Mus musculus [7] = experiment: Acute toxicity was measured as ratio of number of mice that died to the 5 mice in test group on a dose of 0.1 mg/Kg; format: organism-based; settings: in vivo
Mus musculus [8] = experiment: Acute toxicity was measured as ratio of number of mice that died to the 5 mice in test group on a dose of 0.2 mg/Kg; format: organism-based; settings: in vivo
Mus musculus [9] = experiment: Acute toxicity was measured as ratio of number of mice that died to the 5 mice in test group on a dose of 0.4 mg/Kg; format: organism-based; settings: in vivo
Mus musculus [10] = experiment: Acute toxicity was measured as ratio of number of mice that died to the 5 mice in the test group on a dose of 0.05 mg/Kg; format: organism-based; settings: in vivo
Nucleic Acid [11] = experiment: Relative concentration of compound for alkylation of w794 DNA detected at incubation condition of 4 degrees C for 24 hr; Range is 1.0-0.2; format: functional

Question: With `Cc1coc2c(O)cc3c(c12)[C@@H](CCl)CN3C(=O)c1cc2cc(NC(=O)c3cc4ccccc4[nH]3)ccc2[nH]1` as the compound, how does the Efficiency (Nucleic Acid [1]) read?
Answer: Its Efficiency is 0.006.

Question: How did the IC50 (T222 [2]) turn out when `Cc1coc2c(O)cc3c(c12)[C@H](CCl)CN3C(=O)c1cc2cc(NC(=O)c3cc4ccccc4s3)ccc2s1` was run?
Answer: The IC50 was 0.2 ng/mL (≈ 0.349 nM).

Question: Which IC50 (T222 [2]) does the source give for `Cc1coc2c(O)cc3c(c12)[C@H](CCl)CN3C(=O)c1cc2cc(NC(=O)c3cc4ccccc4s3)ccc2[nH]1` here?
Answer: Its IC50 is 0.2 ng/mL (≈ 0.36 nM).

Question: Which IC50 (T222 [3]) does the source give for `Cc1coc2c(O)cc3c(c12)C(C)(C)CN3C(=O)c1cc2cc(NC(=O)c3cc4ccccc4[nH]3)ccc2[nH]1` here?
Answer: Its IC50 is “Not Active”.

Question: With `Cc1coc2c(O)cc3c(c12)C(CCl)CN3C(=O)c1cc2cc(NC(=O)c3cc4ccccc4[nH]3)ccc2[nH]1` (single isomer, unassigned) as the compound, how does the inhibition in vivo at 0.05 mg/kg (Mus musculus [4]) read?
Answer: The inhibition in vivo at 0.05 mg/kg was 68%.

Question: What about the inhibition in vivo at 0.1 mg/kg (Mus musculus [5]) of the same compound?
Answer: The inhibition in vivo at 0.1 mg/kg was 73%.

Question: What about the inhibition in vivo at 0.2 mg/kg (Mus musculus [6]) of the same compound?
Answer: Its inhibition in vivo at 0.2 mg/kg is 85%.

Question: What about the Toxicity (Mus musculus [7]) of the same compound?
Answer: The Toxicity was 0.

Question: And the Toxicity (Mus musculus [8])?
Answer: The Toxicity was 1.

Question: And the Toxicity (Mus musculus [9])?
Answer: Its Toxicity is 5.

Question: And the Toxicity (Mus musculus [10])?
Answer: The Toxicity was 0.

Question: And the Efficiency (Nucleic Acid [11])?
Answer: Its Efficiency is 0.2.

Question: How did the IC50 (T222 [2]) turn out when `CC[C@]1(O)C[C@@H]2CN(CCc3c([nH]c4ccccc34)[C@@](C(=O)OC)(c3cc4c(cc3OC)N(C)[C@H]3[C@@](O)(C(=O)NN)[C@H](O)[C@]5(CC)C=CCN6CC[C@]43[C@@H]65)C2)C1` [DESACETYLVINBLASTINEHYDRAZIDE] was run?
Answer: Its IC50 is 3 ng/mL (≈ 3.9 nM).

Source: ChEMBL document CHEMBL1127792, “Total synthesis and biological properties of novel antineoplastic (chloromethyl)furanoindolines: an asymmetric hydroboration mediated synthesis of the alkylation subunits” (J Med Chem, 1994)
